# Structures can show the parent of a compound that is named as a salt.
# Target: GST tagged IRAK4 (Homo sapiens (Human), UniProt Q9NWZ3)
# Experiment: IRAK4 Kinase Assay (IMAP fluorescence polarization)
# Format: biochemical
# Conditions: 0.5 nM GST tagged IRAK4, 100 μM ATP, 30 minutes at 25° C.
# Summary of the method: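 GST-tagged IRAK4 (0.5 nM) phosphorylates 100 nM fluorescent peptide with 100 μM ATP in 10 mM Tris pH 7.2, 1 mM MgCl2, 1 mM DTT, 0.01% Tween 20 for 30 min at 25 °C. Phosphorylation read as IMAP nanoparticle-binding fluorescence polarization after stop reagent.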
# GST tagged IRAK4, sequence (Q9NWZ3 whole entry): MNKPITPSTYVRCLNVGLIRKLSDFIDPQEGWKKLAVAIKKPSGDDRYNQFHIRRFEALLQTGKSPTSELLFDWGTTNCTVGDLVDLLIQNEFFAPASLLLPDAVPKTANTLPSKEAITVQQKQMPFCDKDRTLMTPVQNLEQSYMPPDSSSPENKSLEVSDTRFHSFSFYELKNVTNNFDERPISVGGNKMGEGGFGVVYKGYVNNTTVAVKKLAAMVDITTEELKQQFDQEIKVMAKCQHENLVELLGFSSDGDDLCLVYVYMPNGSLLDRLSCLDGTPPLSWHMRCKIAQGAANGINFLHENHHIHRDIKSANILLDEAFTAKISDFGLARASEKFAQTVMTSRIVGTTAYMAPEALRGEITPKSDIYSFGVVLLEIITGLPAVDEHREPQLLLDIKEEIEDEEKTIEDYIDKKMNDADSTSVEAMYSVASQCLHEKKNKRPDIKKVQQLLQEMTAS
row,Structure (SMILES),IC50
1,"N[C@@H]1[C@H](Nc2cnc3scc(C(=O)Nc4cscc4C(F)F)c3n2)CCCC1(F)F [Example 67, 2-{[(1R,2R)-2-amino-3,3-difluorocyclohexyl]amino}-N-[4-(difluoromethyl)thiophen-3-yl] thieno[2,3-b] pyrazine-7-carboxamide trifluoroacetate]",330 nM
2,"N[C@@H]1[C@H](Nc2cnc3scc(C(=O)Nc4cscc4Br)c3n2)CCCC1(F)F [Example 68, 2-{[(1R,2R)-2-amino-3,3-difluorocyclohexyl]amino}-N-(4-bromothiophen-3-yl) thieno[2,3-b] pyrazine-7-carboxamide formate]",2100 nM
3,"N[C@@H]1[C@H](Nc2cnc3scc(C(=O)Nc4ccsc4Br)c3n2)CCCC1(F)F [Example 71, 2-{[(1R,2R)-2-amino-3,3-difluorocyclohexyl]amino}-N-(2-bromothiophen-3-yl) thieno[2,3-b] pyrazine-7-carboxamide trifluoroacetate]",2070 nM
4,"N[C@H]1CCCC[C@H]1Nc1cnc2scc(C(=O)Nc3ccsc3C(F)(F)F)c2n1 [Example 76, 2-{[(1R,2S)-2-amino-cyclohexyl]amino}-N-(2-(trifluoromethyl)thiophen-3-yl] thieno[2,3-b] pyrazine-7-carboxamide trifluoroacetate]",12 nM
5,"N#Cc1sccc1NC(=O)c1csc2ncc(N[C@@H]3CCCC(F)(F)[C@@H]3N)nc12 [Example 78, 2-{[(1R,2R)-2-amino-3,3-difluorocyclohexyl]amino}-N-(2-cyanothiophen-3-yl) thieno[2,3-b] pyrazine-7-carboxamide trifluoroacetate]",3660 nM
6,"N#Cc1ccccc1NC(=O)c1csc2ncc(N3CCNCC4(CC4)C3)nc12 [Example 83, N-(2-cyanophenyl)-2-(5,8-diazaspiro-[2.6]non-5-yl)-thieno[2,3-b]-pyrazine-7-carboxamide trifluoroacetate]",899 nM
7,"N#Cc1ccccc1NC(=O)c1csc2ncc(N3CCNCC3)nc12 [Example 86, N-(2-cyanophenyl)-2-piperazin-1-yl-thieno[2,3-b]-pyrazine-7-carboxamide trifluoroacetate]",292 nM
8,"N[C@H]1CCCC[C@H]1Nc1cnc2scc(C(=O)Nc3ccccc3Br)c2n1 [Example 87, 2-{[(1R,2S)-2-aminocyclohexyl]-amino}-N-(2-bromophenyl)-thieno[2,3-b]-pyrazine-7-carboxamide trifluoroacetate]",2 nM
9,"O=C(Nc1ccccc1C(F)(F)F)c1csc2ncc(N3CCCNCC3)nc12 [Example 90, 2-(1,4-diazepan-1-yl)-N-[2-(trifluoromethyl)phenyl]thieno[2,3-b]pyrazine-7-carboxamide trifluoroacetate]",6400 nM
10,"N[C@H]1CCCC[C@H]1Nc1cnc2scc(C(=O)Nc3ccccc3Cl)c2n1 [Example 92, 2-{(1R,2S)-2-aminocyclohexyl]-amino}-N-(2-chlorophenyl)-thieno[2,3-b]-pyrazine-7-carboxamide trifluoroacetate]",0.8 nM
11,"N[C@@H]1[C@H](Nc2cnc3scc(C(=O)Nc4ccccc4Cl)c3n2)CCCC1(F)F [Example 101, 2-{[(1R,2R)-2-amino-3,3-difluorocyclohexyl]-amino}-N-(2-chlorophenyl)-thieno[2,3-b]-pyrazine-7-carboxamide trifluoroacetate]",545 nM
12,"N[C@H]1CCCC[C@H]1Nc1cnc2scc(C(=O)Nc3ccccc3C(F)F)c2n1 [Example 102, 2-{[(1R,2S)-2-aminocyclohexyl]-amino}-N-[2-(difluoromethyl)phenyl]thieno-[2,3-b]-pyrazine-7-carboxamide trifluoroacetate]",25 nM
13,"N#Cc1ccccc1NC(=O)c1csc2ncc(N[C@@H]3CCCC(F)(F)[C@@H]3N)nc12 [Example 105, 2-{[(1R,2R)-2-amino-3,3-difluorocyclohexyl]-amino}-N-(2-cyanophenyl)-thieno[2,3-b]-pyrazine-7-carboxamide trifluoroacetate]",146 nM
14,"N[C@H]1CCCC[C@H]1Nc1cnc2scc(C(=O)Nc3cscc3Cl)c2n1 [Example 110, 2-{[(1R,2S)-2-aminocyclohexyl]-amino}-N-(4-chlorothiophen-3-yl)thieno[2,3-b]-pyrazine-7-carboxamide trifluoroacetate]",0.7 nM
15,"N[C@@H]1[C@H](Nc2cnc3scc(C(=O)Nc4cscc4Cl)c3n2)CCCC1(F)F [Example 111, 2-{[(1R,2R)-2-amino-3,3-difluorocyclohexyl]-amino}-N-(4-chlorothiophen-3-yl)thieno[2,3-b]-pyrazine-7-carboxamide trifluoroacetate]",645 nM

# Continued by falling IC50, values first:
row,IC50,Structure (SMILES)
1,3630 nM,"O=C(Nc1ccccc1C(F)F)c1csc2ncc(N3CCCNCC3)nc12 [Example 103, 2-(1,4-diazepan-1-yl)-N-[2-(difluoromethyl)phenyl]thieno[2,3-b]pyrazine-7-carboxamide trifluoroacetate]"
2,2580 nM,"N[C@@H]1[C@H](Nc2cnc3scc(C(=O)Nc4ccccc4C(F)F)c3n2)CCCC1(F)F [Example 106, 2-{[(1R,2R)-2-amino-3,3-difluorocyclohexyl]-amino}-N-[2-(difluoromethyl)phenyl]thieno[2,3-b]pyrazine-7-carboxamide trifluoroacetate]"
3,2340 nM,"O=C(Nc1ccccc1Br)c1csc2ncc(N3CCCNCC3)nc12 [Example 82, N-(2-bromophenyl)-2-(1,4-diazepan-1-yl)thieno[2,3-b]pyrazine-7-carboxamide trifluoroacetate]"
4,2010 nM,"N[C@@H]1[C@H](Nc2cnc3scc(C(=O)Nc4ccccc4Br)c3n2)CCCC1(F)F [Example 96, 2-{[(1R,2R)-2-amino-3,3-difluorocyclo-hexyl]amino}-N-(2-bromo-phenyl)thieno-[2,3-b]-pyrazine-7-carboxamide]"
5,1590 nM,"O=C(Nc1ccsc1C(F)(F)F)c1csc2ncc(N3CCCNCC3)nc12 [Example 73, 2-(1,4-diazepan-1-yl)-N-[2-(trifluoromethyl)thiophen-3-yl] thieno[2,3-b] pyrazine-7-carboxamide trifluoroacetate]"
6,1410 nM,"N[C@@H]1[C@H](Nc2cnc3scc(C(=O)Nc4ccsc4Cl)c3n2)CCCC1(F)F [Example 60, 2-{[(1R,2R)-2-amino-3,3-difluorocyclohexyl]amino}-N-(2-chloro-thiophen-3-yl) thieno[2,3-b] pyrazine-7-carboxamide trifluoroacetate]"
7,595 nM,"O=C(Nc1ccccc1Cl)c1csc2ncc(N3CCCNCC3)nc12 [Example 91, N-(2-chlorophenyl)-2-(1,4-diazepan-1-yl)thieno[2,3-b]-pyrazine-7-carboxamide trifluoroacetate]"
8,558 nM,"N#Cc1ccccc1NC(=O)c1csc2ncc(N3CCCNCC3)nc12 [Example 80, N-(2-Cyanophenyl)-2-(1,4-diazepan-1-yl)thieno[2,3-b]pyrazine-7-carboxamide]"
9,422 nM,"N#Cc1sccc1NC(=O)c1csc2ncc(N3CCCNCC3)nc12 [Example 72, N-(2-cyanothiophen-3-yl)-2-(1,4-diazepan-1-yl)thieno[2,3-b] pyrazine-7-carboxamide trifluoroacetate]"
10,371 nM,"N#Cc1cscc1NC(=O)c1csc2ncc(N[C@@H]3CCCC(F)(F)[C@@H]3N)nc12 [Example 79, 2-{[(1R,2R)-2-amino-3,3-difluorocyclohexyl]amino}-N-(4-cyanothiophen-3-yl) thieno[2,3-b] pyrazine-7-carboxamide trifluoroacetate]"
11,151 nM,"O=C(Nc1cscc1Cl)c1csc2ncc(N3CCCNCC3)nc12 [Example 107, N-(4-chlorothiophen-3-yl)-2-(1,4-diazepan-1-yl)-thieno[2,3-b]-pyrazine-7-carboxamide trifluoroacetate]"
12,86 nM,"N[C@H]1CCCC[C@H]1Nc1cnc2scc(C(=O)Nc3ccccc3C(F)(F)F)c2n1 [Example 81, 2-{[(1R,2S)-2-aminocyclo-hexyl]amino}-N-[2-(trifluoromethyl)phenyl]thieno[2,3-b]pyrazine-7-carboxamide trifluoroacetate]"
13,33 nM,"N#Cc1ccccc1NC(=O)c1csc2ncc(N3CCC[C@@H](N)C3)nc12 [Example 84, 2-[(3R)-3-aminopiperidin-1-yl]-N-(2-cyanophenyl)-thieno[2,3-b]-pyrazine-7-carboxamide trifluoroacetate]"
14,2 nM,"N#Cc1ccccc1NC(=O)c1csc2ncc(N[C@@H]3CCCNC3)nc12 [Example 85, N-(2-cyanophenyl)-2-[(3R)-piperidin-3-ylamino]-thieno[2,3-b]-pyrazine-7-carboxamide trifluoroacetate]"
15,0.5 nM,"N#Cc1cscc1NC(=O)c1csc2ncc(N[C@@H]3CCCC[C@@H]3N)nc12 [Example 57, 2-{[(1R,2S)-2-amino-cyclohexyl]amino}-N-(4-cyanothiophen-3-yl)thieno[2,3-b] pyrazine-7-carboxamide trifluoroacetate]"
16,0.5 nM,"N#Cc1sccc1NC(=O)c1csc2ncc(N[C@@H]3CCCC[C@@H]3N)nc12 [Example 77, 2-{[(1R,2S)-2-amino-cyclohexyl]amino}-N-(2-(cyanothiophen-3-yl)thieno[2,3-b]pyrazine-7-carboxamide trifluoroacetate]"
17,0.5 nM,"N#Cc1ccccc1NC(=O)c1csc2ncc(N[C@@H]3CCCC[C@@H]3N)nc12 [Example 95, 2-{[(1R,2S)-2-aminocyclohexyl]-amino}-N-(2-cyanophenyl)-thieno[2,3-b]-pyrazine-7-carboxamide trifluoroacetate]"

# Reference: patent publication US10040802B2, “Thienopyrazine inhibitors of IRAK4 activity” (MERCK SHARP & DOHME CORP., priority 2015, dated 2018)
